# Results taken from BindingDB's records for doi:10.1016/S0960-894X(97)00247-3 (1997).
# Biological target: not listed separately
# Experiment: Compound was tested for the Inhibition of human Secretory phospholipase A 2 acyl hydrolysis using a membrane assay; inactive
row,IC50,SMILES
1,60 µM,CCCCCCCCCCCCCCCCCCOCC(CC[S+](C)[O-])NC(C)=O (configuration not stated) [N-[1-[(Octadecyloxy)methyl]-3-(methylsulfinyl)propyl]acetamide]
2,50 µM,CCCCCCCCCCCCCCCCCCOCC(CCS(=O)(=O)c1ccc(C)cc1)NC(C)=O (configuration not stated) [N-[1-Octadecyloxymethyl-3-(toluene-4-sulfonyl)-propyl]-acetamide]
3,0.57 µM,CCCCCCCCCCCCCCCCCCOCC(CCc1nnn[nH]1)NC(C)=O (configuration not stated) [N-[1-Octadecyloxymethyl-3-(1H-tetrazol-5-yl)-propyl]-acetamide]
4,6.6 µM,CCCCCCCCCCCCC(=O)NC(CCCC)CCc1nnn[nH]1 (configuration not stated) [Tridecanoic acid {1-[2-(1H-tetrazol-5-yl)-ethyl]-pentyl}-amide]
5,100 µM,"CCCCCCCCCCCCCCCCCCOCC(COCC(F)(F)F)NC(C)=O (configuration not stated) [N-[1-Octadecyloxymethyl-2-(2,2,2-trifluoro-ethoxy)-ethyl]-acetamide]"
6,1 µM,CCCCCCCCCCCCC(=O)NC(COCCC)COP(=O)(O)OCCO (configuration not stated) [Phosphoric acid 2-hydroxy-ethyl ester 3-propoxy-2-tridecanoylamino-propyl ester]

# Second part, the molecule before the results:
row,SMILES,IC50
1,"CCCCCCCCCCCCCCCCCCOCC(CCC(O)CO)NC(C)=O (configuration not stated) [N-(4,5-Dihydroxy-1-octadecyloxymethyl-pentyl)-acetamide]",8.9 µM
2,C=CCCC(COCCCCCCCCCCCCCCCCCC)NC(C)=O (configuration not stated) [N-(1-Octadecyloxymethyl-pent-4-enyl)-acetamide],8 µM
3,CCCCCCCCOC[C@H](CO[P@](=O)(O)OCCN)O[P@@](=O)(O)CCCCCCC,1 µM
4,CCCCCCCCCCCCCCCCCCOCC(CCCC)NC(C)=O (configuration not stated) [N-(1-Octadecyloxymethyl-pentyl)-acetamide],60 µM

# Biological target: not listed separately
# Experiment: as above
# Remark: another data set of the same source
row,IC50,SMILES
1,> 200 µM,CCCCCCCCCCCCCCCCCCOCC(CNS(=O)(=O)c1ccc(C)cc1)NC(C)=O (configuration not stated) [N-[1-Octadecyloxymethyl-2-(toluene-4-sulfonylamino)-ethyl]-acetamide]
2,> 200 µM,CCCCCCCCCCCCCCCCCCOCC(CC[S+]([O-])c1ccc(C)cc1)NC(C)=O (configuration not stated) [N-{1-(Octadecyloxymethyl)-3-[(4-methylphenyl)sulfinyl]propyl}acetamide]

# Second part, the molecule before the results:
row,SMILES,IC50
1,CCCCCCCCCCCCCCCCCCOCC(CCC1CO1)NC(C)=O (configuration not stated) [N-(1-Octadecyloxymethyl-3-oxiranyl-propyl)-acetamide],> 200 µM
2,CCCCCCCCCCCCCCCCCCOCC(CCCO)NC(C)=O (configuration not stated) [N-(4-Hydroxy-1-octadecyloxymethyl-butyl)-acetamide],> 200 µM
3,CCCCCCCCCCCCCCCCCCOCC(CCC(C)=O)NC(C)=O (configuration not stated) [N-(1-Octadecyloxymethyl-4-oxo-pentyl)-acetamide],> 200 µM
4,CCCCCCCCCCCCCCCCCCOCC(CCSc1ccc(C)cc1)NC(C)=O (configuration not stated) [N-(1-Octadecyloxymethyl-3-p-tolylsulfanyl-propyl)-acetamide],> 200 µM

# Biological target: Phospholipase A2, membrane associated (group IIA)
# Experiment: Compound was tested for the Inhibition of human Secretory phospholipase A 2 acyl hydrolysis using a membrane assay; Inactive
row,IC50,SMILES
1,> 200 µM,CCCCCCCCCCCCCCCCCCOCC(CCCCO)NC(C)=O (configuration not stated) [N-(5-Hydroxy-1-octadecyloxymethyl-pentyl)-acetamide]
